Assays:
[1] = Solubility (physicochemical properties, Table 1); conditions: in Methanol, Acetonitril, Chloroform und Benzol
Excerpt: (§1) Die physikalisch-chemisch sowie spektroskopischen Eigenschaften von Cillianon lassen sich wie folgt zusammenfassen: Tabelle 1

[2] = molecular target: T1, humanen IL-4 Rezeptor (huIL-4R/Fc) (Homo sapiens, UniProt P24394); experiment: Cell-free huIL-4 binding assay (IL-4 receptor test, ELISA with receptor/Fc fusion protein and biotinylated ligand); conditions: huIL-4R/Fc 500 ng/ml; biotinylated huIL-4 100 ng/ml; 1 h room temperature; PBSA with 5 % DMSO; Abbildung 3
T1 construct: die aus der extrazellulären Region von normalerweise membranständigen Rezeptoren bestehen
T1 sequence (P24394 26-232 limits assumed): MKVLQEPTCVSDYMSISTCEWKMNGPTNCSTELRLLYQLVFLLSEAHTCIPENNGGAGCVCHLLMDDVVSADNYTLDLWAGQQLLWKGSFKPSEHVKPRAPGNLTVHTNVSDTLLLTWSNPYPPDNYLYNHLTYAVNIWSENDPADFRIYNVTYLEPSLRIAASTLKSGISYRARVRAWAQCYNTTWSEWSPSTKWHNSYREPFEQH
Excerpt: Aus der EP 488 170 A1 sind zellfreie Bindungsteste bekannt. Für ihre Durchführung werden rekombinante chimäre Proteine verwendet, die aus der extrazellulären Region von normalerweise membranständigen Rezeptoren bestehen, an deren Carboxyterminus die Fc-Region einer schweren Immunglobulinkette bestehend aus Hinge-, CH2- und CH3-Domäne fusioniert wurde. Diese sogenannten Rezeptor/Fc-Fusionsproteine können unter Erhalt der spezifischen Rezeptorbindungsaktivität an Festphasen gebunden werden, die beispielsweise mit monoklonalen Antikörpern gerichtet gegen den Fc-Teil vorbeschichtet wurden. Als Festphase wurden für dieses Beispiel ®Nunc Typ B ELISA-Platten verwendet. Rezeptor/Fc-Fusionsproteine gelöst in PBS enthaltend 10 mg/ml BSA (PBSA) wurden an diese vorbehandelten Platten gebunden (huIL-4R/Fc: 500 ng/ml; muIL-4R/Fc: 250 ng/ml; huIL-1R/Fc: 125 ng/ml; 1 h bei Raumtemperatur). Nach Waschen wurden die Peptide beziehungsweise die jeweiligen spezifischen unmarkierten Liganden (huIL-4R/Fc: huIL-4; muIL-4R/Fc: muIL-4; huIL-1R/Fc:huIL-1ra) in variierenden Konzentrationen und danach die spezifischen Liganden in biotinylierender Form in einer festen Konzentration zugegeben (100 ng/ml). Die Inkubation erfolgte 1 h bei Raumtemperatur in PBSA enthaltend 5 % DMSO. Nach Waschen erfolgte eine Inkubation mit Streptavidin/Peroxidase (Amersham, 1:2000 in PBSA) für 20 min bei Raumtemperatur. […]

[3] = Stability (physicochemical properties, Table 1)
Excerpt: as §1

## Cc1cc(O)c2c3c(c(O)c4c(c13)OC(C)C4(C)C)C(=O)C(O)(O)C2=O (centres unmarked) [Cillianon]
[1]
  Löslichkeit: lösliche
[2]
  IC50: 55.8 µM
[3]; im sauren Milieu
  Stabilität: stabil
[3]; in wässrigem Alkali
  Stabilität: unbeständig
[3]; unter Lichteinwirkung
  Stabilität: unbeständig

From patent EP0742215A1, “Cillianon, antibiotic from penicillin spe., and chemical derivatives thereof, method for their preparation and application” (HOECHST AKTIENGESELLSCHAFT, priority 1995, dated 1996)
